From patent US6649797B2, “Compounds and methods of use to treat infectious diseases” (The Picower Institute for Medical Research, priority 1996, dated 2003)
pIC50: −log10 of the molar value.

Legend:
HIV-1ADA = assay: Nuclear importation of HIV-1 DNA in monocytes (2-LTR circle PCR, Translocation Index); format: cell-based; settings: 100 nM, 48 and 96 hours post infection
Source text: The effects of Compound No. 2 on the nuclear importation of HIV-1 preintegration complexes can be directly measured by detecting the presence of circularized duplex HIV-1 genomic DNA. These duplex circles can be readily detected by PCR amplification using primers which span the junction of the circularized HIV-1 genome. Bukrinsky, M. I., et al., 1992, Proc.Natl.Acad.Sci. 89:6580-84.
Briefly, the efficiency of nuclear translocation was estimated by the ratio between the 2-LTR- and pol-specific PCR products, which reflects the portion of 2-LTR circle DNA molecules as a fraction of the entire pool of intracellular HIV-1 DNA. Viral 2-LTR circle DNA is formed exclusively within the nucleus of infected cells and thus is a convenient marker of successful nuclear translocation. […]
PCR analysis of HIV-1 DNA: Total DNA was extracted from HIV-1-infected cells using the IsoQuick extraction kit (Microprobe Corp., Garden Grove, Calif.). DNA was then analyzed by PCR using primer pairs that amplify the following sequences: a fragment of HIV-1 (LTR/gag) that is the last one to be synthesized during reverse transcription and therefore represents the pool of full-length viral DNA molecules; a fragment of polymerase gene (pol); a 2-LTR junction region found only in HIV-1 2-LTR circle DNA molecules; or a fragment of the cellular a-tubulin gene. […]

[1] = tested on: macrophage-tropic strain of HIV-1; assay: Inhibition of HIV-1 replication in peripheral blood-derived macrophages (IC50, RT or p24 in medium); format: cell-based; settings: Human immunodeficiency virus 1, Macrophage, 120 h; 50% inhibition of viral growth; RT or p24 in medium about day 5 or 6 post-infection
Description: A quantitative measurement of the activity of the compounds of the invention to block the replication of HIV-1 in non-dividing cells can be determined by culture of a macrophage-tropic strain of HIV-1 on peripheral blood-derived macrophages. The cells are cultured for 5-6 days prior to infection in a medium consisting of DMEM supplemented with 10% type A/B human serum and 200 U/ml Macrophage Colony Stimulating Factor, with half the medium changed after 3 days, to reach a density of about 10^6 cells per 5 ml well. A macrophage-tropic viral stock may be grown on these cells. The concentration of infectious particles in the stock is estimated by measurement of p24 antigen concentration.
To test the effect of compounds of the invention on HIV-1 infection in the above-described culture system, the medium is removed and replaced with medium containing HIV-1 at a concentration of 1 ng of p24 (10^4 TCID50/ml (TCID=tissue culture infectious doses)) and a known concentration of the compound of the invention (the inhibitor). After 24 hours, the cultures are washed to remove non-adherent virus and the culture is re-fed with medium containing the inhibitor at the desired concentration. The amount of replication of HIV-1 is estimated by an assay of the reverse transcriptase activity or by an assay of the concentration of p24 antigen in the culture medium every 2-3 days throughout the post-infection period. In a preferred embodiment the anti-HIV potency of the candidate drug is measured by comparison of the concentration of reverse transcriptase (RT) or of p24 antigen in the medium of the treated and control cultures at the time of the peak of these values in non-treated control cultures, that is about day 5 or 6 post-infection. Repetition at various levels of inhibitor allows for the calculation of the concentration of inhibitor that achieves 50% inhibition of viral growth, IC50. Table I discloses the IC50 of various inhibitors.

For `CC(=O)c1cc(Nc2cc(C)[n+](C)c(N)n2)cc(C(C)=O)c1.[I-]` [Compound No. 2, 2-amino-4-(3,5-diacetylphenyl)amino-1,6-dimethylpyrimidinium iodide], the “Translocation Index” value (HIV-1ADA; relative to drug free control) was “less than 10”, the inhibition at 0.1 µM (HIV-1ADA; Human immunodeficiency virus 1, Monocyte) was > 90% and the pIC50 [1] was 9.00.
